Measured values from US20110081428A1, “Use of thioflavin-like compounds to increase life span and/or health span” (priority 2009, published 2011).

Columns and labels:
[1] = system: N2 worms; assay: Locomotory ability / spontaneous movement (body bends); assay type: in vivo, Caenorhabditis elegans; conditions: 50 μM ThT
Procedure: Data are presented as bends/min and represent the average of three independent experiments. *p<0.0001. e) Dose-response Kaplan-Meier survival curves of synchronously ageing hermaphrodite N2 populations exposed to 0 (control) to […], f) HBX and g) HBT at 20° C. (−) Control, (▪) 1 nM, ([…]) 10 μM, (▴) 100 μM, (▾) […]. Graphs are representative of three independent experiments.

[2] = system: DAF-16 fusion protein [TJ356 daf-16::daf-16-gfp]; assay: DAF-16::GFP localization; assay type: in vivo, Caenorhabditis elegans; conditions: ThT or curcumin treatment, no heat shock
Procedure: (§1) For fluorescent microscopy, TJ356 zIs356 IV [daf-16::daf-16-gfp+rol-6] or CF2189 Is001(skn-1::gfp+rol-6) were paralyzed with 1 mM levamisole mounted on 1% agarose pads and imaged using Olympus BX51 (60× objective) and HCImage software (Hamamatsu). For immunofluorescence, N2, […], CB1157 unc-54(e1157) or CL4176 dvIs27 [myo-3::Aβ(3 to 42)-let 3′UTR(pAF29); pRF4 (rol-6(su1006))] worms were treated for 24-36 h with or without 50 μM ThT at 25° C. After this period the worms were collected, rinsed, and fixed in 4% paraformaldehyde overnight. […] Paramyosin and perlecans were detected with primary monoclonal antibodies 5-23 and MH3 (developed by Henry Epstein and Robert H. Waterston and obtained from the Developmental Studies Hybridoma Bank developed under the auspices of the NICHD and maintained by The University of Iowa, Department of Biology, Iowa City, Iowa 52242) and AlexaFluor 633 goat anti-mouse (Molecular Probes) as secondary antibody. Soluble oligomers and Aβ peptide were detected with anti polyclonal All (Invitrogen) and 6E10 monoclonal (Covance) primary antibodies, respectively, with AlexaFluor 568 goat anti-rabbit and AlexaFluor 488 goat anti-mouse (Molecular Probes) as secondary antibodies. Images were processed and quantified by using Image Analyst MK II (Novato, Calif.).

[3] = system: unc-52 RNA; assay: Real time quantitative PCR, unc-52; assay type: in vivo, Caenorhabditis elegans; conditions: 50 μM ThT, 12 days of treatment
Procedure: (§2) Twelve single adults from control or 50 μM ThT populations were picked after 3, 6 and 12 days of treatment into 5 μl of distilled water and flash frozen until extraction. Individual worms were extracted using the RNeasy Micro Kit, TissueLyser and QIAcube (Qiagen). Using the manufacturer's standard Animal Tissue protocol, each sample was homogenized in buffer RLT/Bme (Qiagen) on the TissueLyser (6 min total at 20 Hz). Samples, reagents and columns were then loaded into the QIAcube robot, and processed using the “RNeasy Micro—Animal tissues and cells—DNase digest” program. Each sample was then eluted in 14 μl of Nuclease-free water. cDNA templates for the Real Time PCR reactions were made using a combination of Message Sensor RT kit (Ambion's) and TaqMan PreAmp Master Mix (Applied Biosystems). The entire worm sample was added to the RT reaction and reversed transcribed at 50° C. for 20 min, using Message Sensor's “Two Step RT-PCR Protocol” (sample RT's were randomized). Then 2.5 μl of the cDNA sample was pre-amplified with a “4×Multiplex Primer Mix” for 14 cycles using TaqMan PreAmp master mix and protocol (ABI). Two modifications were made to ABI's protocol: 1. the reaction volume was reduced to 10 μl and 2. after pre-amplification, each cDNA sample was diluted 1:5 with 1XTE Buffer (Promega). cDNA samples were stored at −20° C. until needed. […]

[4] = biological target: Aβ3-42 aggregates in CL4176 (Homo sapiens, UniProt P05067); assay: Aβ aggregation in vivo by immunohistochemistry; set-up: species or system Caenorhabditis elegans; conditions: CL4176, 50 μM ThT
Procedure: For immunofluorescence, N2, unc-He250 52(e669su250), CB1157 unc-54(e1157) or CL4176 dvIs27 [myo-3::Aβ(3 to 42)-let 3′UTR(pAF29); pRF4 (rol-6(su1006))] worms were treated for 24-36 h with or without 50 μM ThT at 25° C. After this period the worms were collected, rinsed, and fixed in 4% paraformaldehyde overnight. After fixation, worms were rinsed twice with 1 ml of 10 mM Tris-HCl pH 7.5 and then permeabilized by 24 h exposure to β-mercaptoethanol at 37° C. followed by collagenase treatment (2 mg/ml for 1-1.5 at 37° C.) to allow for digestion of the cuticle. Paramyosin and perlecans were detected with primary monoclonal antibodies 5-23 and MH3 (developed by Henry Epstein and Robert H. Waterston and obtained from the Developmental Studies Hybridoma Bank developed under the auspices of the NICHD and maintained by The University of Iowa, Department of Biology, Iowa City, Iowa 52242) and AlexaFluor 633 goat anti-mouse (Molecular Probes) as secondary antibody. Soluble oligomers and Aβ peptide were detected with anti polyclonal All (Invitrogen) and 6E10 monoclonal (Covance) primary antibodies, respectively, with AlexaFluor 568 goat anti-rabbit and AlexaFluor 488 goat anti-mouse (Molecular Probes) as secondary antibodies. Images were processed and quantified by using Image Analyst MK II (Novato, Calif.).

[5] = system: hsp-6 RNA; assay: Real time quantitative PCR, hsp-6; assay type: in vivo, Caenorhabditis elegans; conditions: 50 μM ThT, 3 and 6 days of treatment
Procedure: as §2

[6] = system: HE250 [unc-52(e669su250)II]; assay: RNAi knockdown of proteostasis factors with paralysis scoring; assay type: in vivo, Caenorhabditis elegans; conditions: HE250, 50 μM ThT
Procedure: RNAi bacterial strains expressing double-stranded RNA that inactivates specified genes were cultured and utilized as previously described. (Timmons, L., Court, D. L. & Fire, A. Ingestion of bacterially expressed dsRNAs can produce specific and potent genetic interference in Caenorhabditis elegans. Gene 263, 103-112 (2001).) Briefly, eggs isolated from synchronous populations of unc-52(e669su250) cultures were placed on fresh RNAi plates and allowed to grow at 15° C.; 3 days later, L4 molt animals were transferred to new plates seeded with the same bacteria in presence or absence of ThT and switched to 25° C. The cultures were scored for paralysis after 48 h of treatment as described above. In all cases, 1 mM isopropyl-beta-D-thiogalactopyranoside (IPTG) was used for induction of double stranded RNA. In all the cases the identity of the clones was confirmed by sequencing.

[7] = system: aggregation-prone soluble oligomeric protein (A11 antibody) in N2; assay: A11 immunolocalization of soluble oligomeric protein, N2; assay type: in vivo, Caenorhabditis elegans; conditions: N2, 11 days old, 50 μM ThT
Procedure: as §1

Sequence of Aβ3-42 aggregates in CL4176 (P05067 674-713): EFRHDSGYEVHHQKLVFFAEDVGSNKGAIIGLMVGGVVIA

What does the source list for `Cc1ccc2c(c1)sc(-c1ccc(N(C)C)cc1)[n+]2C.[Cl-]` [ThT, 4-(3,6-dimethyl-1,3-benzothiazol-3-ium-2-yl)-N,N-dimethylaniline chloride]?
age-related decline in spontaneous movement [1]: retarded age-related decline in spontaneous movement; DAF-16::GFP localization [2]: did not alter the normal localization; unc-52 RNA levels [3]: decreases the levels of unc-52; Aβ aggregate formation and muscle integrity [4]: reduced aggregate formation and preserved the muscle integrity; hsp-6 RNA levels [5]: up-regulated; ThT protection from paralysis with RNAi of proteasome and autophagy genes ([6]; RNAi aip-1, atg-9, vps-34): required for the beneficial effects of ThT; ThT protection from paralysis with RNAi of acute stress genes ([6]; RNAi hsp-16.2, hsp-16.41): decreased; ThT suppression of paralysis with daf-16 RNAi ([6]; daf-16 (RNAi)): potentiated; ThT effect on paralysis with lmp-2 RNAi ([6]; lmp-2(RNAi)): significantly improved the ThT effect on paralysis; ThT effect on paralysis with skn-1 RNAi ([6]; skn-1 (RNAi)): required for ThT effect on the paralysis phenotype; A11-positive oligomeric material [7]: significantly decreased
